12 molecules from patent publication US6369069B1 (Aventis Pharma Deutschland GmbH, priority 1998, dated 2002) can be followed below.

The subject of data set [1] is Na^+-dependent Cl^−/HCO3^− exchanger (NCBE). As to the kind of experiment: Inhibition of the Na+-dependent Cl−/HCO3− exchanger (NCBE) in human endothelial cells (pHi recovery, BCECF fluorescence, FLIPR). Format: cell-based. Particulars: 10 μM compound; human endothelial cells (ECV-304); related to 100% and 0% pHi recovery controls. The procedure, abridged:
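ECV-304 cells loaded with 5 μM BCECF-AM in NH4Cl-containing saline, then placed in Na+/HCO3−-free buffer to acidify. pHi recovery started with Na+/HCO3− buffer (50 μM HOE 642) plus compound at various concentrations. Fluorescence kinetics over 2 min at 35 °C, normalised to 100% and 0% (HCO3−-free) controls.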

Regarding `N#CNS(=O)(=O)c1ccccc1-c1ccc(CN(Cc2ccccc2)S(=O)(=O)c2cccs2)c(Cl)c1` [Example 556, 4′-{[Benzyl-(2-thiophen-2-sulfonyl)amino]methyl}-3′-chlorobiphenyl-2-sulfonylcyanamide], the “Residual activity of the NCBE at 10 μM” value in data set [1] is 0%.
Regarding `CS(=O)(=O)c1cc(-c2ccccc2S(=O)(=O)NC#N)ccc1CN(Cc1ccccc1)S(=O)(=O)c1cccs1` [Example 557, 4′-{[Benzyl(thiophene-2-sulfonyl)amino]methyl}-3′-methylsulfonylbiphenyl-2-sulfonylcyanamide], the “Residual activity of the NCBE at 10 μM” value in data set [1] was determined as 14%.
Regarding `COCCOc1cc(-c2ccccc2S(=O)(=O)NC#N)ccc1CN(Cc1ccccc1)S(=O)(=O)c1cccs1` [Example 558, 4′-{[Benzyl(thiophene-2-sulfonyl)amino]methyl}-3′-(2-methoxy)ethoxy-biphenyl-2-sulfonylcyanamide], the “Residual activity of the NCBE at 10 μM” value in data set [1] is recorded as 30%.
With `COCCOc1cc(-c2ccccc2S(=O)(=O)NC#N)ccc1CN(Cc1ccccc1)C(=O)Cc1cccs1` [Example 560, 4′-{[Benzyl-2-(thiophen-2-yl)acetylamino]methyl}-3′-(2-methoxy)ethoxy-biphenyl-2-sulfonylcyanamide], the “Residual activity of the NCBE at 10 μM” value in data set [1] is reported as 8.0%.
As for `Cc1ccccc1CC(=O)N(Cc1ccccc1)Cc1ccc(-c2ccccc2S(=O)(=O)NC#N)cc1` [Example 561, 4′-{[Benzyl-2-(2-methylphenyl)acetylamino]methyl}biphenyl-2-sulfonylcyanamide], the melting point is 108 °C (dec.). In addition, the “Residual activity of the NCBE at 10 μM” value in data set [1] turned out to be 16%.
On to `N#CNS(=O)(=O)c1ccccc1-c1ccc(CN(Cc2ccccc2)C(=O)Cc2ccccc2C(F)(F)F)cc1` [Example 562, 4′-{[Benzyl-2-(2-trifluoromethylphenyl)acetylamino]methyl}biphenyl-2-sulfonylcyanamide], for which the melting point is 90 °C (dec.). Also, the “Residual activity of the NCBE at 10 μM” value in data set [1] is 33%.
With `N#CNS(=O)(=O)c1ccccc1-c1ccc(CN(Cc2ccccc2)C(=O)Cc2ccccc2OC(F)(F)F)cc1` [Example 563, 4′-{[Benzyl-2-(2-trifluoromethoxyphenyl)acetylamino]methyl}biphenyl-2-sulfonylcyanamide], the melting point is 125 °C (dec.). Further, the “Residual activity of the NCBE at 10 μM” value in data set [1] is 46%.
The matching figures for `N#CNS(=O)(=O)c1ccccc1-c1ccc(CN(Cc2ccccc2)C(=O)Cc2ccccc2SC(F)(F)F)cc1` [Example 564]: 122 °C (dec.) and 23%.
The matching figures for `Cc1ccccc1C(=O)N(Cc1ccccc1)Cc1ccc(-c2ccccc2S(=O)(=O)NC#N)cc1` [Example 565, 4′-{[Benzyl-2-methylbenzoylamino]methyl}biphenyl-2-sulfonylcyanamide]: 173 °C (dec.) and 42%.
As to `N#CNS(=O)(=O)c1ccccc1-c1ccc(CN(Cc2ccccc2)C(=O)c2ccccc2C(F)(F)F)cc1` [Example 566, 4′-{[Benzyl-2-trifluoromethylbenzoylamino]methyl}biphenyl-2-sulfonylcyanamide], the melting point was 165 °C (dec.). Besides, the “Residual activity of the NCBE at 10 μM” value in data set [1] amounted to 72%.
In the case of `N#CNS(=O)(=O)c1ccccc1-c1ccc(CN(Cc2ccccc2)C(=O)c2ccccc2OC(F)(F)F)cc1` [Example 567, 4′-{[Benzyl-2-trifluoromethoxybenzoylamino]methyl}biphenyl-2-sulfonylcyanamide], the melting point is 160 °C (dec.). The “Residual activity of the NCBE at 10 μM” value in data set [1] is 69%.
In the same order, the values of `Cc1ccc(C(=O)N(Cc2ccccc2)Cc2ccc(-c3ccccc3S(=O)(=O)NC#N)cc2)s1` [Example 568, 4′-{[Benzyl-(5-methylthiophen-2-yl)carbonylamino]methyl}biphenyl-2-sulfonylcyanamide] are 166 °C (dec.) and 70%.
